Converted amounts (≈) assume the structure as drawn. Read-outs that look alike come from different tables or passages of the source.
Key:
Assay in all cases: microbe, parasite or virus in culture
Type in all cases: cell-based, Mycobacterium tuberculosis
[1] = system: Mtb strain resistant to Ethionamide ATCC 35830; settings: for MIC: Mycobacterium tuberculosis; for MIC, Mtb strain resistant to Ethionamide ATCC 35830: Table 5
[2] = system: Mtb strain resistant to Isoniazid ATCC 35822; settings: for MIC: Mycobacterium tuberculosis
[3] = system: Mtb strain resistant to Streptomycin ATCC 35820; settings: for MIC: Mycobacterium tuberculosis
[4] = system: Mtb strain resistant to Kanamycin ATCC 35827; settings: for MIC: Mycobacterium tuberculosis
[5] = system: Mtb strain resistant to P-aminosalicyclic acid ATCC 35821; settings: for MIC: Mycobacterium tuberculosis; for MIC, Mtb strain resistant to P-aminosalicyclic acid ATCC 35821: Table 5
[6] = system: Mtb strain resistant to Ethambutol ATCC 35837; settings: for MIC: Mycobacterium tuberculosis; for MIC, Mtb strain resistant to Ethambutol ATCC 35837: Table 5
[7] = ATCC35830, read-out: Activity against Mtb strain resistant to Ethionamide ATCC 35830
[8] = ATCC35822, read-out: Activity against Mtb strain resistant to Isoniazid ATCC 35822
[9] = ATCC35820, read-out: Activity against Mtb strain resistant to Streptomycin ATCC 35820
[10] = ATCC35827, read-out: Activity against Mtb strain resistant to Kanamycin ATCC 35827
[11] = ATCC35821, read-out: Activity against Mtb strain resistant to P-aminosalicyclic acid ATCC 35821
[12] = ATCC35837, read-out: Activity against Mtb strain resistant to Ethambutol ATCC 35837
[13] = ATCC35830, read-out: MIC, Mtb strain resistant to Ethionamide ATCC 35830
[14] = ATCC35822, 168 h, read-out: MIC, Mtb strain resistant to Isoniazid ATCC 35822
[15] = ATCC35820, 168 h, read-out: MIC, Mtb strain resistant to Streptomycin ATCC 35820
[16] = ATCC35827, 168 h, read-out: MIC, Mtb strain resistant to Kanamycin ATCC 35827
[17] = ATCC35837, read-out: MIC, Mtb strain resistant to Ethambutol ATCC 35837
[18] = ATCC35821, read-out: MIC, Mtb strain resistant to P-aminosalicyclic acid ATCC 35821

SMILES | MIC [1, 7] [µg/mL] | MIC [2, 8] [µg/mL] | MIC [3, 9] [µg/mL] | MIC [4, 10] [µg/mL] | MIC [5, 11] [µg/mL] | MIC [1, 13] [µg/mL] | MIC [3, 15] [µg/mL] | MIC [6, 17] [µg/mL] | MIC [5, 18] [µg/mL] | further results
CC(C)(C)Nc1n[n+]([O-])c2ccccc2[n+]1[O-] [SRI-003356] | 1.25 (≈ 5.34 µM) | 2.5 (≈ 10.7 µM) | 1.25 (≈ 5.34 µM) | 2.5 (≈ 10.7 µM) | 1.25 (≈ 5.34 µM) |  |  |  |  | 
CCNc1n[n+]([O-])c2cc3c(cc2[n+]1[O-])CCC3 [SRI-012286] | 1.25 (≈ 5.08 µM) | 2.5 (≈ 10.2 µM) | 0.63 (≈ 2.56 µM) | 1.25 (≈ 5.08 µM) | 1.25 (≈ 5.08 µM) |  |  |  |  | MIC [6, 12]: 1.25 µg/mL (≈ 5.08 µM)
CCNc1n[n+]([O-])c2cc3c(cc2[n+]1[O-])CCCC3 [SRI-012496] | 1.25 (≈ 4.8 µM) | 1.25 (≈ 4.8 µM) | 1.25 (≈ 4.8 µM) | 1.25 (≈ 4.8 µM) | 1.25 (≈ 4.8 µM) |  |  |  |  | MIC [6, 12]: 1.25 µg/mL (≈ 4.8 µM)
CC1CCCCN1c1n[n+]([O-])c2cc3c(cc2[n+]1[O-])CCC3 (centres unmarked) [SRI-012567] |  | 0.31 (≈ 1.03 µM) |  | 0.62 (≈ 2.06 µM) |  |  |  |  |  | 
CCNc1n[n+]([O-])c2cc3c(cc2[n+]1[O-])CCC3 [Compound 15fa, 3-(ethylamino)-7,8-dihydro-6H-indeno[5,6-e][1,2,4]triazine 1,4-dioxide] |  |  |  |  |  | 1.2 (≈ 4.87 µM) | 0.63 (≈ 2.56 µM) | 1.2 (≈ 4.87 µM) | 1.2 (≈ 4.87 µM) | MIC [2, 14]: 2.5 µg/mL (≈ 10.2 µM); MIC [4, 16]: 1.2 µg/mL (≈ 4.87 µM)
[O-][n+]1nc(N2CCCC2)[n+]([O-])c2cc3c(cc21)CCC3 [Compound 20q, 3-(pyrrolidin-1-yl)-7,8-dihydro-6H-indeno[5,6-e][1,2,4]triazine 1,4-dioxide] |  |  |  |  |  |  |  |  |  | MIC ([2]; ATCC35822, 168 h, Table 5, read-out: MIC, Mtb strain resistant to Isoniazid ATCC 35822): 0.31 µg/mL (≈ 1.14 µM); MIC ([3]; ATCC35820, 168 h, Table 5, read-out: MIC, Mtb strain resistant to Streptomycin ATCC 35820): 0.16 µg/mL (≈ 0.588 µM); MIC ([4]; ATCC35827, 168 h, Table 5, read-out: MIC, Mtb strain resistant to Kanamycin ATCC 35827): 0.63 µg/mL (≈ 2.31 µM)
CCN(CC)c1n[n+]([O-])c2ccccc2[n+]1[O-] [SRI-009728] | 0.16 (≈ 0.683 µM) | 0.31 (≈ 1.32 µM) | 0.31 (≈ 1.32 µM) | 0.31 (≈ 1.32 µM) | 0.31 (≈ 1.32 µM) |  |  |  |  | MIC [6, 12]: 0.31 µg/mL (≈ 1.32 µM)
[O-][n+]1nc(N2CCCCC2)[n+]([O-])c2cc3c(cc21)CCC3 [Compound 20r, 3-(piperidin-1-yl)-7,8-dihydro-6H-indeno[5,6-e][1,2,4]triazine 1,4-dioxide] |  |  |  |  |  | 0.31 (≈ 1.08 µM) | 0.15 (≈ 0.524 µM) | 0.31 (≈ 1.08 µM) | 0.31 (≈ 1.08 µM) | 
CCNc1n[n+]([O-])c2cc(C)c(OC)cc2[n+]1[O-] [Compound 15ga, 3-(ethylamino)-6-methoxy-7-methylbenzo[e][1,2,4]triazine 1,4-dioxide] |  |  |  |  |  | 1.2 (≈ 4.8 µM) | 1.2 (≈ 4.8 µM) | 1.2 (≈ 4.8 µM) | 1.2 (≈ 4.8 µM) | MIC [2, 14]: 1.2 µg/mL (≈ 4.8 µM); MIC [4, 16]: 1.2 µg/mL (≈ 4.8 µM)
CN(C)c1n[n+]([O-])c2cc3c(cc2[n+]1[O-])CCC3 [Compound 20s, 3-(dimethylamino)-7,8-dihydro-6H-indeno[5,6-e][1,2,4]triazine 1,4-dioxide] |  |  |  |  |  | 0.15 (≈ 0.609 µM) | < 0.07 | 0.31 (≈ 1.26 µM) | 0.15 (≈ 0.609 µM) | 
CN(Cc1ccccc1)c1n[n+]([O-])c2cc3c(cc2[n+]1[O-])CCC3 [SRI-012564] |  | < 0.07 |  | 0.15 (≈ 0.465 µM) |  |  |  |  |  | 
CN(CCc1ccccc1)c1n[n+]([O-])c2cc3c(cc2[n+]1[O-])CCC3 [SRI-012565] |  | 0.07 (≈ 0.208 µM) |  | 0.15 (≈ 0.446 µM) |  |  |  |  |  | 
O=S1(=O)CCN(c2n[n+]([O-])c3cc4c(cc3[n+]2[O-])CCC4)CC1 [SRI-012566] | 0.62 (≈ 1.84 µM) | 2.5 (≈ 7.43 µM) | 2.5 (≈ 7.43 µM) | 2.5 (≈ 7.43 µM) | 2.5 (≈ 7.43 µM) |  |  |  |  | MIC [6, 12]: 2.5 µg/mL (≈ 7.43 µM)
[O-][n+]1nc(N2CCCCC2)[n+]([O-])c2cc3c(cc21)CCC3 [SRI-012562] |  | 0.15 (≈ 0.524 µM) |  | 0.31 (≈ 1.08 µM) |  |  |  |  |  | 
[O-][n+]1nc(NC2CCC2)[n+]([O-])c2cc3c(cc21)CCCC3 [SRI-012497] | 1.25 (≈ 4.37 µM) | 2.5 (≈ 8.73 µM) | 1.25 (≈ 4.37 µM) | 2.5 (≈ 8.73 µM) | 1.25 (≈ 4.37 µM) |  |  |  |  | MIC [6, 12]: 2.5 µg/mL (≈ 8.73 µM)
CCNc1n[n+]([O-])c2cccc(C)c2[n+]1[O-] [Compound 15ea, Ethyl-(5-methyl-1,4-dioxy-benzo[1,2,4]triazin-3-yl)-amine] |  |  |  |  |  |  |  |  |  | MIC, Mtb strain resistant to Ethionamide ATCC 35830 [1]: 0.31 µg/mL (≈ 1.41 µM); MIC, Mtb strain resistant to Isoniazid ATCC 35822 ([2]; Table 5): 0.62 µg/mL (≈ 2.82 µM); MIC, Mtb strain resistant to Streptomycin ATCC 35820 ([3]; Table 5): 0.16 µg/mL (≈ 0.727 µM); MIC, Mtb strain resistant to Kanamycin ATCC 35827 ([4]; Table 5): 0.62 µg/mL (≈ 2.82 µM); MIC, Mtb strain resistant to Ethambutol ATCC 35837 [6]: 0.62 µg/mL (≈ 2.82 µM); MIC, Mtb strain resistant to P-aminosalicyclic acid ATCC 35821 [5]: 0.31 µg/mL (≈ 1.41 µM)
CN(Cc1ccccc1)c1n[n+]([O-])c2cc3c(cc2[n+]1[O-])CCC3 [Compound 20t, 3-(benzyl(methyl)amino)-7,8-dihydro-6H-indeno[5,6-e][1,2,4]triazine 1,4-dioxide] |  |  |  |  |  | 0.07 (≈ 0.217 µM) | < 0.07 | 0.15 (≈ 0.465 µM) | 0.07 (≈ 0.217 µM) | 
CC1CCCCN1c1n[n+]([O-])c2cc3c(cc2[n+]1[O-])CCC3 (centres unmarked) [Compound 20w, 3-(2-methylpiperidin-1-yl)-7,8-dihydro-6H-indeno[5,6-e][1,2,4]triazine 1,4-dioxide] |  |  |  |  |  | 0.31 (≈ 1.03 µM) | 0.31 (≈ 1.03 µM) | 0.62 (≈ 2.06 µM) | 0.62 (≈ 2.06 µM) | 
[O-][n+]1nc(NC2CCC2)[n+]([O-])c2cc3c(cc21)CCC3 [Compound 15fd, Cyclobutyl-(5,8-dioxy-2,3-dihydro-1H-5,6,8-triaza-cyclopenta[b]naphthalen-7-yl)-amine] |  |  |  |  |  |  |  |  |  | MIC, Mtb strain resistant to Ethionamide ATCC 35830 [1]: 0.62 µg/mL (≈ 2.28 µM); MIC, Mtb strain resistant to Isoniazid ATCC 35822 ([2]; Table 5): 1.2 µg/mL (≈ 4.41 µM); MIC, Mtb strain resistant to Streptomycin ATCC 35820 ([3]; Table 5): 0.31 µg/mL (≈ 1.14 µM); MIC, Mtb strain resistant to Kanamycin ATCC 35827 ([4]; Table 5): 1.2 µg/mL (≈ 4.41 µM); MIC, Mtb strain resistant to Ethambutol ATCC 35837 [6]: 0.62 µg/mL (≈ 2.28 µM); MIC, Mtb strain resistant to P-aminosalicyclic acid ATCC 35821 [5]: 0.62 µg/mL (≈ 2.28 µM)
CN(CCc1ccccc1)c1n[n+]([O-])c2cc3c(cc2[n+]1[O-])CCC3 [Compound 20u, 3-(methyl(phenethyl)amino)-7,8-dihydro-6H-indeno[5,6-e][1,2,4]triazine 1,4-dioxide] |  |  |  |  |  | 0.15 (≈ 0.446 µM) | < 0.07 | 0.31 (≈ 0.922 µM) | 0.15 (≈ 0.446 µM) | 
[O-][n+]1nc(NC2CC3CCC2C3)[n+]([O-])c2cc3c(cc21)CCCC3 (centres unmarked) [SRI-012498] | 1.25 (≈ 3.83 µM) | 2.5 (≈ 7.66 µM) | 1.25 (≈ 3.83 µM) | 1.25 (≈ 3.83 µM) | 1.25 (≈ 3.83 µM) |  |  |  |  | MIC [6, 12]: 1.25 µg/mL (≈ 3.83 µM)
CN(C)c1n[n+]([O-])c2cc3c(cc2[n+]1[O-])CCC3 [SRI-012563] |  | < 0.07 |  | 0.31 (≈ 1.26 µM) |  |  |  |  |  | 
[O-][n+]1nc(N2CCCC2)[n+]([O-])c2ccccc21 [Compound 17q, 3-(pyrrolidin-1-yl)benzo[e][1,2,4]triazine 1,4-dioxide] |  |  |  |  |  | 0.31 (≈ 1.33 µM) | 0.02 (≈ 0.0861 µM) | 0.31 (≈ 1.33 µM) | 0.62 (≈ 2.67 µM) | 
CS(=O)(=O)N1CCN(c2n[n+]([O-])c3cc4c(cc3[n+]2[O-])CCC4)CC1 [SRI-012568] | 0.62 (≈ 1.7 µM) | 2.5 (≈ 6.84 µM) | 2.5 (≈ 6.84 µM) | 2.5 (≈ 6.84 µM) | 2.5 (≈ 6.84 µM) |  |  |  |  | MIC [6, 12]: 2.5 µg/mL (≈ 6.84 µM)
[O-][n+]1nc(N2CCCC2)[n+]([O-])c2ccccc21 [SRI-012495] |  | 0.31 (≈ 1.33 µM) |  | 0.31 (≈ 1.33 µM) |  |  |  |  |  | 
[O-][n+]1nc(N2CCCC2)[n+]([O-])c2cc3c(cc21)CCC3 [SRI-012530] | 0.62 (≈ 2.28 µM) | 0.31 (≈ 1.14 µM) | 0.16 (≈ 0.588 µM) | 0.63 (≈ 2.31 µM) | 0.31 (≈ 1.14 µM) |  |  |  |  | MIC [6, 12]: 0.62 µg/mL (≈ 2.28 µM)
[O-][n+]1nc(NC2CCC2)[n+]([O-])c2cc3c(cc21)CCC3 [SRI-012403] |  | 1.25 (≈ 4.59 µM) |  | 1.25 (≈ 4.59 µM) |  |  |  |  |  | 
CC(C)(C)Nc1n[n+]([O-])c2ccccc2[n+]1[O-] [Compound 8c, 3-(tert-butylamino)benzo[e][1,2,4]triazine 1,4-dioxide] |  |  |  |  |  | 1.2 (≈ 5.12 µM) | 1.2 (≈ 5.12 µM) | 2.5 (≈ 10.7 µM) | 1.2 (≈ 5.12 µM) | 

Source: US9663478B2, “Benzotriazine oxides as drugs targeting Mycobacterium tuberculosis” (priority 2011, dated 2017)
